{"source": "patent US12138347B2", "about": "“Nanoparticles and nanonetworks formed therefrom” (University of Houston System, priority 2018, dated 2024)", "origin": "cited, not measured here", "key": {"HL60 leukemia cells": {"system": "HL60 leukemia cells", "settings": "p53 null cell line"}, "K562 leukemia cells": {"system": "K562 leukemia cells", "settings": "p53 null cell line"}, "[1]": {"system": "HT-29 colon carcinoma cells", "settings": "p53 null cell line"}}, "data": [{"smiles": "C[C@H]1CCC/C=C/[C@@H]2C[C@H](O)C[C@H]2[C@H](O)/C=C/C(=O)O1", "note": "[BFA, Brefeldin A]", "values": [{"measurement": "potency in HL60 leukemia cells", "setting": "HL60 leukemia cells", "value": "high potency"}, {"measurement": "potency in K562 leukemia cells", "setting": "K562 leukemia cells", "value": "high potency"}, {"measurement": "effect on efficacy of docetaxel", "setting": "prostate cancer cells", "value": "enhances the efficacy"}, {"measurement": "potency in HT-29 colon carcinoma cells", "setting": "[1]", "value": "high potency"}]}]}
